Reference: patent publication US20190062846A1, “COMPOSITIONS AND METHODS FOR SCREENING PEDIATRIC GLIOMAS AND METHODS OF TREATMENT THEREOF” (DANA-FARBER CANCER INSTITUTE, INC., priority 2016, published 2019)

Experiments:
[1] = system: mouse neural stem cells engineered to express MYB-QKI5 (short variant); experiment: Percentage viability of mouse neural stem cells after increased doses of inhibitor; format: cell-based; conditions: mNSCs expressing MYB-QKI5 (short variant); doses 0, 0.05, 0.1, 0.3, 0.5, 1 μM; in comparison with GFP-expressing mNSCs; FIG. 42C
Experimental: (§1) FIGS. 42A-D are a set of graphs showing percentage viability of mouse neural stem cells expressing GFP (FIG. 42A), truncated MYB (FIG. 42B), MYB-QKI5 (short variant) (FIG. 42C), and MYB-QKI6 (short variant) (FIG. 42D) after the treatment of increased doses (0, 0.05, 0.1, 0.3, 0.5, and 1 μM) of JQ1, THZ1 (“CDK7i”), and DMSO as negative control.
(§2) FIG. 44 is a graph showing the percentage viability of mouse neural stem cells expressing GFP (“GFP”), truncated MYB (“MYBtr”), MYB-QKI5 (short variant) (“MYBQKI5”), and MYB-QKI6 (short variant) (“MYBQKI6”) after the treatment of increased doses (0, 0.05, 0.1, 0.3, 0.5, and 1 μM) of dasatinib or DMSO as negative control.
(§3) Modifiers of the MYB pathway and key upstream and downstream effectors were examined for their ability to inhibit growth and induce death of cells expressing MYB-QKI fusion protein. […] Thus, cells expressing truncated MYB or MYB-QKI were specifically sensitive to inhibition of BET by JQ1.
(§4) 1,000 cells/well were plated in 96-well plates, with five replicates. Cell viability was measured by assessing ATP content using CellTiter-Glo (Promega). Means±s.e.m. were calculated.

[2] = system: mouse neural stem cells engineered to express MYB-QKI6 (short variant); experiment: as above; format: cell-based; conditions: mNSCs expressing MYB-QKI6 (short variant); doses 0, 0.05, 0.1, 0.3, 0.5, 1 μM; in comparison with GFP-expressing mNSCs; FIG. 42D
Experimental: as §1, §2, §3, §4

[3] = system: mouse neural stem cells engineered to express truncated MYB; experiment: as above; format: cell-based; conditions: mNSCs expressing truncated MYB; doses 0, 0.05, 0.1, 0.3, 0.5, 1 μM; in comparison with GFP-expressing mNSCs; FIG. 42B
Experimental: as §1, §2, §3, §4

[4] = system: mouse neural stem cells engineered to express MYB-QKI5 (short variant); experiment: Cell growth of mouse neural stem cells over a time course; format: cell-based; conditions: mNSCs expressing MYB-QKI5 (short variant); 0.5 μM or 1 μM; 0, 1, 3, 5 days; in comparison with GFP-expressing mNSCs; FIG. 43C
Experimental: (§5) FIGS. 43A-D are a set of graphs showing cell growth of mouse neural stem cells expressing GFP (FIG. 43A), truncated MYB (FIG. 43B), MYB-QKI5 (short variant) (FIG. 43C), and MYB-QKI6 (short variant) (FIG. 43D) over a time course (0, 1, 3, and 5 days) in the presence of 0.5 μM or 1 μM of LY2835219 (“CDK4/6 inhibitor”).
(§6) Inhibition of CDK7 was also examined using a specific CDK7 inhibitor THZ1. […] Thus, cells expressing MYB-QKI were sensitive to inhibition of CDK7 by THZ1. This effect is specific with CDK7. […] Thus, cells expressing truncated MYB or MYB-QKI were specifically sensitive to inhibition of CDK7 by THZ1.
as §4

[5] = system: mouse neural stem cells engineered to express MYB-QKI6 (short variant); experiment: as above; format: cell-based; conditions: mNSCs expressing MYB-QKI6 (short variant); 0.5 μM or 1 μM; 0, 1, 3, 5 days; in comparison with GFP-expressing mNSCs; FIG. 43D
Experimental: as §5, §6, §4

[6] = system: mouse neural stem cells engineered to express truncated MYB; experiment: as above; format: cell-based; conditions: mNSCs expressing truncated MYB; 0.5 μM or 1 μM; 0, 1, 3, 5 days; in comparison with GFP-expressing mNSCs; FIG. 43B
Experimental: as §5, §6, §4

[7] = system: MYB-QKI5 (short variant) fusion protein; experiment: Quantity of protein after treatment with DUB inhibitor; format: cell-based, human; conditions: after treatment with PR619; FIG. 45
Description: (§7) FIG. 45 is a graph showing the quantity of truncated MYB or MYB-QKI fusion protein after the treatment with PR619.
(§8) Another possible approach of suppressing cells expressing truncated MYB or MYB-QKI is reducing the amount of the truncated MYB or MYB-QKI protein, for example, by increasing the degradation of this protein. DUBs remove ubiquitination and thereby increase the half-life of proteins. Thus, DUB inhibitors may accelerate the degradation of truncated MYB or MYB-QKI.
(§9) Cells were lysed and subjected to SDS-PAGE gradient gels as previously described3l. Blots were probed with antibodies against MYB (ab45150, Abcam at 1:500 dilution), QKI (A300-183A, Bethyl Laboratories at 1:1,000 dilution) and actin (sc-1615, Santa Cruz Biotechnology at 1:2,000 dilution).

[8] = system: MYB-QKI6 (short variant) fusion protein; experiment: as above; format: cell-based, human; conditions: after treatment with PR619; FIG. 45
Description: as §7, §8, §9

[9] = system: truncated MYB ("MYBtr"); experiment: as above; format: cell-based, human; conditions: after treatment with PR619; FIG. 45
Description: as §7, §8, §9

Row | Structure (SMILES) | viability of cells [1] | viability of cells [2] | viability of cells [3] | further results
1 | Cc1sc2c(c1C)C(c1ccc(Cl)cc1)=N[C@@H](CC(=O)OC(C)(C)C)c1nnc(C)n1-2 [JQ1] | significantly compromised the viability | significantly compromised the viability | significantly compromised the viability | 
2 | CCN1CCN(Cc2ccc(Nc3ncc(F)c(-c4cc(F)c5nc(C)n(C(C)C)c5c4)n3)nc2)CC1 [LY2835219] |  |  |  | cell growth [4]: did not strongly inhibit the growth; cell growth [5]: did not strongly inhibit the growth; cell growth [6]: did not strongly inhibit the growth
3 | N#CSc1cc(SC#N)c(N)nc1N [PR619] |  |  |  | amount of MYB-QKI5 (short variant) protein [7]: reduced the amount; amount of MYB-QKI6 (short variant) protein [8]: reduced the amount; amount of truncated MYB protein [9]: reduced the amount
4 | CN(C)C/C=C/C(=O)Nc1ccc(C(=O)Nc2cccc(Nc3ncc(Cl)c(-c4c[nH]c5ccccc45)n3)c2)cc1 [THZ1] | significantly compromised the viability | significantly compromised the viability | significantly compromised the viability | 
